Test results published in patent US10173999B2, “Cyclic amine derivative and pharmaceutical use thereof” (Toray Industries, Inc., priority 2015, dated 2019).
Structures can show the parent of a compound that is named as a salt.

Tests used:
[1] = Stability test in monkey liver microsomes; assay type: in vitro ADME; conditions: pH 7.4; monkey liver microsomes 0.5 mg/mL, test compound 2 μmol/L, 37° C., 0-30 min; read-out: Hepatic intrinsic clearance, Monkey
Description: (§1) Experiment was performed using the compound of Example 11, Comparative Example 1 or Comparative Example 6 as a test compound and human liver microsomes (from Xenotech), monkey liver microsomes (from Xenotech), dog liver microsomes (from Xenotech) or mouse liver microsomes (from Xenotech) as the liver microsomes.
(§2) The reagents to be used in the stability test in liver microsomes were prepared as follows. A D-glucose 6-phosphate disodium salt (hereinafter referred to as G6P) was dissolved with distilled water to prepare an aqueous solution of G6P (100 mmol/L). Glucose 6-phosphate dehydrogenase (1000 units) from Yeast (hereinafter referred to as G6PDH) was dissolved with distilled water (5 mL) to prepare an aqueous solution of G6PDH (200 units/mL). MgCl2 was dissolved with distilled water to prepare an aqueous solution of MgCl2 (100 mmol/L). […]
(§3) With respect to the chromatogram of each well obtained by LC/MS analysis or LC/MS/MS analysis, the test compound residual ratio (%) at each reaction time t (min) was calculated based on the peak area at the reaction time of 0 minute as 100%. […]

[2] = Stability test in mouse liver microsomes; assay type: in vitro ADME; conditions: pH 7.4; mouse liver microsomes 0.5 mg/mL, test compound 2 μmol/L, 37° C., 0-30 min; read-out: Hepatic intrinsic clearance, Mouse
Description: as §1, §2, §3

Row | Structure (SMILES) | microsomal CLint at 2 μmol/L [1] [µL/min/mg] | microsomal CLint at 2 μmol/L [2] [µL/min/mg]
1 | CN(C)C1CCN(C(=O)CCc2nccn2C)CC1 [Comparative Example 1, 1-(4-(dimethylamino)piperidin-1-yl)-3-(1-methyl-1H-imidazol-2-yl)propan-1-one hydrochloride] | 2 | 4
2 | CN(C)C1CCN(C(=O)C[C@H](O)c2nccn2C)CC1 [Example 11, (S)-1-(4-(dimethylamino)piperidin-1-yl)-3-hydroxy-3-(1-methyl-1H-imidazol-2-yl)propan-1-one] | – | 3
3 | CC(C)n1ccnc1CCC(=O)N1CCC(N(C)C)CC1 [Comparative Example 6, 1-(4-(dimethylamino)piperidin-1-yl)-3-(1-isopropyl-1H-imidazol-2-yl)propan-1-one hydrochloride] | 6 | –
